{
  "source": "patent US10865417B2",
  "about": "“Yeast synthetic biology platform for identifying shikimate pathway enzyme inhibitors” (New York University, priority 2018, dated 2020)",
  "key": {"[1]": {"target": "step 2 of the pathway, DHQS (Escherichia coli, UniProt P07639)", "sequence (P07639 whole entry)": "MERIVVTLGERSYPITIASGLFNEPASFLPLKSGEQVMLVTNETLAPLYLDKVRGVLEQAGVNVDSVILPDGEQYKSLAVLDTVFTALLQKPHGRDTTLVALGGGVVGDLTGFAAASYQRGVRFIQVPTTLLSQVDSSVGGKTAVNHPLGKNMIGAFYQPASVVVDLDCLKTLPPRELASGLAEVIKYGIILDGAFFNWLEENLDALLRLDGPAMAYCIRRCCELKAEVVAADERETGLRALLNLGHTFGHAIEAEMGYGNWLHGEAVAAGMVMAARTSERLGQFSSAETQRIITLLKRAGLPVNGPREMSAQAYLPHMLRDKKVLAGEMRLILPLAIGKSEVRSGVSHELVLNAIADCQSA", "settings": "reference (25); cited from earlier work"}, "[2]": {"test_system": "Staphylococcus aureus pathway", "assay": "Yeast avatar glyphosate sensitivity assay, Staphylococcus aureus pathway", "assay_type": "cell-based", "settings": "aro1Δ yeast carrying Staphylococcus aureus pathway, 0.25% glyphosate, FIG. 3"}, "[3]": {"test_system": "Neisseria gonorrhoeae pathway", "assay": "Yeast avatar glyphosate sensitivity assay, Neisseria gonorrhoeae pathway", "assay_type": "cell-based", "settings": "aro1Δ yeast carrying Neisseria gonorrhoeae pathway, 0.25% glyphosate, FIG. 3"}, "[4]": {"target": "T1, step 2 (DHQS) of Neisseria gonorrhoeae (Neisseria gonorrhoeae, UniProt Q5FAD4)", "T1 construct": "expressed in transfected cells; host or cells: Saccharomyces cerevisiae aro1Δ, co-transformed with [Sau HGC] lacking step 2", "T1 sequence (Q5FAD4 whole entry)": "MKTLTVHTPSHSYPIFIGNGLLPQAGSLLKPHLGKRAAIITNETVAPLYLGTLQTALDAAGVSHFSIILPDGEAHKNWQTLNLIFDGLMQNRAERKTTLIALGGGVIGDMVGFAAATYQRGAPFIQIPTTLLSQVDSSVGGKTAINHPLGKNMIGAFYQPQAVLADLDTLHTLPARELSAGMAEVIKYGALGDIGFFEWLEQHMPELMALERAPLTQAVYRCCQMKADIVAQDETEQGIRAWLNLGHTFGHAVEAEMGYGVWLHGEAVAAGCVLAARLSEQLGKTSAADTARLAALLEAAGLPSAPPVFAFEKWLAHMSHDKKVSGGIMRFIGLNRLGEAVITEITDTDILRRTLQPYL", "assay": "N−1 assay for molecular target of glyphosate, [Sau HGC] lacking step 2", "assay_type": "cell-based", "settings": "aro1Δ [Ngo] yeast with [Sau HGC] lacking step 2, −AAA, 0.25% glyphosate", "excerpt": "(§1) FIG. 6. Molecular target identification of the shikimate pathway inhibitor glyphosate in the yeast avatar system. Yeast cells lacking ARO1 (aro1Δ) carrying the Neisseria gonorrhoeae pathway ([Ngo]) or an empty vector (empty) were co-transformed with a full-length Staphylococcus aureus pathways ([Sau HGC]), one of five derivatives of [Sau HGC] lacking a single enzymatic activity (step 2, step 3, step 4, step 5, step 6), or an empty vector (empty) lacking all shikimate pathway enzymatic activities. Cells were plated on replete medium including aromatic amino acids (+AAA) or selective medium lacking aromatic amino acids (−AAA). 0.25% glyphosate (vol/vol of a commercially available 41% solution of glyphosate) was added to the plates where indicated. Cell growth indicates complementation and absence of cell growth indicates no complementation.\n(§2) As discussed above, five steps of the endogenous shikimate pathway are provided by a single gene, ARO1, which encodes a penta-functional protein (FIG. 1, 2). […] To distinguish between these possibilities and determine whether any of the heterologous enzymatic activities are functional in yeast, the “N−1” assay can be used. […] Each of the five strains can then be evaluated for complementation on medium lacking aromatic amino acids. […]"}, "[5]": {"test_system": "step 6 (EPSPS) of Neisseria gonorrhoeae", "assay": "N−1 assay for molecular target of glyphosate, [Sau HGC] lacking step 6", "assay_type": "cell-based, yeast (aro1Δ) carrying Neisseria gonorrhoeae pathway", "settings": "aro1Δ [Ngo] yeast with [Sau HGC] lacking step 6, −AAA, 0.25% glyphosate", "excerpt": "as §1, §2"}, "[6]": {"test_system": "yeast avatars expressing heterologous shikimate pathways (EPSPS enzyme)", "assay": "Yeast avatar glyphosate sensitivity assay (panel of avatars)", "assay_type": "cell-based, Saccharomyces cerevisiae"}},
  "data": [
    {"molecule": "O=C(O)CNCP(=O)(O)O", "note": "[glyphosate]", "values": [
      {"measurement": "inhibition of DHQS", "setting": "[1]", "result": "inhibits"},
      {"measurement": "growth of avatar on glyphosate (sensitivity/resistance)", "setting": "[2]", "result": "resistant"},
      {"measurement": "growth of avatar on glyphosate (sensitivity/resistance)", "setting": "[3]", "result": "demonstrated sensitivity"},
      {"measurement": "cell growth", "setting": "[4]", "result": "completely inhibited"},
      {"measurement": "sensitivity of enzymatic activity to glyphosate", "setting": "[4]", "result": "sensitive"},
      {"measurement": "cell growth", "setting": "[5]", "result": "completely inhibited"},
      {"measurement": "sensitivity of enzymatic activity to glyphosate", "setting": "[5]", "result": "sensitive"},
      {"measurement": "ability of yeast avatars to grow on glyphosate", "setting": "[6]; 0.25% glyphosate (vol/vol of 41% solution), medium lacking aromatic amino acids, 6 days at 30° C., a number of avatars", "result": "sensitive"},
      {"measurement": "glyphosate sensitivity upon supplementation of aromatic amino acids", "setting": "[6]; 0.25% glyphosate, plus tryptophan, phenylalanine and tyrosine", "result": "glyphosate sensitivity was overcome"}
    ]}
  ]
}
